In patent US9340532B2, “Methods and compositions for inhibiting CNKSR1” (PHUSIS THERAPEUTICS, INC., priority 2012, dated 2016):
“And” between values parts separate entries of the source, which are not always exact repeats. Equal entries are not always repeated.

Experiments:
[1] = Stability in biological media: mouse plasma; assay type: in vitro ADME; details: 50 μg/ml, 37° C.
[2] = test system: mut-KRAS H2122 NSCLC tumor xenograft; test: Antitumor activity, H2122 xenograft; assay type: in vivo; details: scid mice
Method: In embodiments, identified compounds may be nontoxic at about […] for about 20 days with no weight loss and no observable toxic effects for the animal, and may have antitumor activity (FIG. 4 A).

[3] = Stability in biological media: fetal bovine serum; assay type: in vitro ADME; details: 10% fetal bovine serum, 50 μg/ml, 37° C.
[4] = test system: H1975 (KRAS wildtype cell line); test: Proliferation Assay H1975; assay type: cell-based; details: Homo sapiens, NCI-H1975, n = 1
Procedure, shortened: (§1)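 Cells plated 2000 per well, allowed 24 h to attach, then exposed 72 h to agents (0-100 μM for isogenic lines; 0.01 to 50 μM for the RPMI 1640/10% FBS-cultured 30-line NSCLC panel). MTS read at 490 nm after 2 h, normalized to no-cell and no-drug controls; IC50 from curve fitting.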

[5] = Pharmacokinetics after oral administration; assay type: in vivo, mice; details: for elimination half life: oral, mice
Method: In order to understand better the reasons for the antitumor activity of compound #7 pharmacokinetic studies were conducted. […] Following oral administration in vivo plasma concentrations of the parent compound were low, about 3 μg/ml (7 μM) whereas the de-esterified acid form (compound 8) was present at high peak concentrations of around 50 μg/ml (128 μM). When compound 8 was administered orally to mice at the same dose even higher peak concentrations of 90 μg/ml (230 μM) were achieved.

[6] = Mouse pharmacokinetics (iv); assay type: in vivo
rHuman carboxyesterase 2 = target: T1, rHuman carboxyesterase 2 (Homo sapiens, UniProt O00748); test: Stability with carboxyesterase 2; assay type: in vitro ADME; details: rHuman carboxyesterase 2 24 U/ml, pH 7.4, 37° C.
T1 sequence (O00748 27-559): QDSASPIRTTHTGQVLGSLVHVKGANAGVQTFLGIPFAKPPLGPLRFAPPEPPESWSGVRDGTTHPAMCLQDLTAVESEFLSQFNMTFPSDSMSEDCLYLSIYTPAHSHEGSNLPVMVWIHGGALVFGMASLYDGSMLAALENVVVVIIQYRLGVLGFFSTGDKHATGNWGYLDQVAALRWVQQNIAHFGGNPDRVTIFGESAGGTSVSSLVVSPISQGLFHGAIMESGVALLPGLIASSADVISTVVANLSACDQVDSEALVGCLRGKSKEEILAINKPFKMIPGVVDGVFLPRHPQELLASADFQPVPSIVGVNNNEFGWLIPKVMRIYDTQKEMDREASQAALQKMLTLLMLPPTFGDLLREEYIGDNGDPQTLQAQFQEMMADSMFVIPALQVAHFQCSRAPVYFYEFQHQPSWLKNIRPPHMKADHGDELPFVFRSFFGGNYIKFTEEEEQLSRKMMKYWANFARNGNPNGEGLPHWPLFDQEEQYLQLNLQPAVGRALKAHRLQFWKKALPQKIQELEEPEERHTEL

[7] = test system: A549 (KRAS mutant cell line); test: Proliferation Assay A549; assay type: cell-based; details: Homo sapiens, N = 2 experiments
Procedure, shortened: as §1

CCOC(=O)Cc1nn(Cc2nc(-c3ccc(C)cc3)cs2)c(=O)c2ccccc12 [Compound 7]
Half life [1]: 6.3 min
tumor growth rate inhibition [2]: about 45%
tumor growth rate ([2]; vehicle about 55): about 30 mm^3/day
Half life [3]: 13.2 h
IC50 [4]: 45 µM
plasma concentration of the parent compound ([5]; compound #7 orally 200 mg/kg, 200 mg/kg): about 3 μg/ml and ~7 μM
elimination half life [5]: 13 h
elimination half life ([5]; listed as #7): 6 h
metabolism in vivo to the acid metabolite ([5]; orally 200 mg/kg, FIG. 4B): rapidly de-esterified
t1/2β [6]: 3 UN min
Half life (rHuman carboxyesterase 2): 1.65 h
IC50 [7]: 15 µM
